The source made the active and inactive calls.
Tests used:
[1] = target: T1, Structural maintenance of chromosomes protein 1A (Homo sapiens, UniProt Q14683)
T1 sequence (Q14683 whole entry): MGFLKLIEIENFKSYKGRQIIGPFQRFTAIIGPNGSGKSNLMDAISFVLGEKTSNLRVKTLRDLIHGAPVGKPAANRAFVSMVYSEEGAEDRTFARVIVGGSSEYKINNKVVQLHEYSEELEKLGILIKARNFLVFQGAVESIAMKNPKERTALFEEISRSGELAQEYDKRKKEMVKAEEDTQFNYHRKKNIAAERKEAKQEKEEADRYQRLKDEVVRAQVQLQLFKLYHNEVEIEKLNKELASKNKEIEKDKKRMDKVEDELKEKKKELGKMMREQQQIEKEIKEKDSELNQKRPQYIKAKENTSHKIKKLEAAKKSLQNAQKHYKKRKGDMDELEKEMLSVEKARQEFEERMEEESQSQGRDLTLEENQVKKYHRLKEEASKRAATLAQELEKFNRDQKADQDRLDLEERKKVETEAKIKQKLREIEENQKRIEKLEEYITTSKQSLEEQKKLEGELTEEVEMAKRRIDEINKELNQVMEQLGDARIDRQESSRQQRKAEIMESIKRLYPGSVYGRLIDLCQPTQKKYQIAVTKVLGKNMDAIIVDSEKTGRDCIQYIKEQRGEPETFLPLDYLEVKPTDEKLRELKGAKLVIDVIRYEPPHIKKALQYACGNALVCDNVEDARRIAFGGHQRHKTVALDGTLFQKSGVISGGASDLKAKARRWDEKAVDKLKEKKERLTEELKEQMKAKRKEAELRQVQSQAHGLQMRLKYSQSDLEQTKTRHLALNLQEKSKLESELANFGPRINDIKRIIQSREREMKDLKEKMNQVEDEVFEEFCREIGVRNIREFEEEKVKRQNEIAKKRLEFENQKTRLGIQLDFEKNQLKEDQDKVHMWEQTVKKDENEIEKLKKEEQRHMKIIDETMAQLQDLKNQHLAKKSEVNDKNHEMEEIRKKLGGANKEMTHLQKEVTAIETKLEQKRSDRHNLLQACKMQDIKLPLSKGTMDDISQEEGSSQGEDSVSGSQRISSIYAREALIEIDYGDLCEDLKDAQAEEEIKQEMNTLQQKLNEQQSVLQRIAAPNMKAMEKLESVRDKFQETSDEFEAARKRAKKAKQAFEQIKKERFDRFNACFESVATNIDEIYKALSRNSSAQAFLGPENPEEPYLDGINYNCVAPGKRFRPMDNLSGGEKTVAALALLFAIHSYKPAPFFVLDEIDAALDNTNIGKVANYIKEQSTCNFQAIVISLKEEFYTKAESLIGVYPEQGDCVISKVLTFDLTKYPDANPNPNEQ

[2] = target: cAMP-dependent protein kinase type II-alpha regulatory subunit (Homo sapiens, UniProt P13861)
[3] = target: Guanine nucleotide-binding protein G(i) subunit alpha-2 (Homo sapiens, UniProt P04899)
[4] = target: T2, Serine/threonine-protein kinase D2 (Homo sapiens, UniProt Q9BZL6)
T2 sequence (Q9BZL6 whole entry): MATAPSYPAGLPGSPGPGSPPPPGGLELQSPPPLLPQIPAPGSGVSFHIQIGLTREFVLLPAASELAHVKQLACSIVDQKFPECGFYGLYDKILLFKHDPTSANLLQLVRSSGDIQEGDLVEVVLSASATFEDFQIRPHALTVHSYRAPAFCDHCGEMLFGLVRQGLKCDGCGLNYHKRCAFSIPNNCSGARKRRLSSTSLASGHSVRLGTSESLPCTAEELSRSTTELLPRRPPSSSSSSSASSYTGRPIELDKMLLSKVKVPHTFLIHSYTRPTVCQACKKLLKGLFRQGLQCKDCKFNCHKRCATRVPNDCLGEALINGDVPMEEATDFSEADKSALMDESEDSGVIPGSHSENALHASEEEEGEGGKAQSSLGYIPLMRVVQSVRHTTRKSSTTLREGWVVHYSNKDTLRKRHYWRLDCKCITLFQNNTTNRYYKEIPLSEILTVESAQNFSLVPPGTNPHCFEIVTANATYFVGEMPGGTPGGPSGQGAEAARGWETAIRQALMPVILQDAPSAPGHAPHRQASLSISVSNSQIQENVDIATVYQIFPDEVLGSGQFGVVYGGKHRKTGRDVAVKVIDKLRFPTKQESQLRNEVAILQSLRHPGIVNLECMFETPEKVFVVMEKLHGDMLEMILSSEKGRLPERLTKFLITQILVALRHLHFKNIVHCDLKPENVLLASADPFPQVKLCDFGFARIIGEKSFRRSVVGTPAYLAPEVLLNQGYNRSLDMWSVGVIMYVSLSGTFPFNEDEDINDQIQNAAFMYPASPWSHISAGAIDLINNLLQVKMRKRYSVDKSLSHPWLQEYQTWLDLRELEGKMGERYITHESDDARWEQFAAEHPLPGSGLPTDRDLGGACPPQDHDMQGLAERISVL

Activin receptor type-1 = target: T3, Activin receptor type-1 (Homo sapiens, UniProt Q04771)
T3 sequence (Q04771 whole entry): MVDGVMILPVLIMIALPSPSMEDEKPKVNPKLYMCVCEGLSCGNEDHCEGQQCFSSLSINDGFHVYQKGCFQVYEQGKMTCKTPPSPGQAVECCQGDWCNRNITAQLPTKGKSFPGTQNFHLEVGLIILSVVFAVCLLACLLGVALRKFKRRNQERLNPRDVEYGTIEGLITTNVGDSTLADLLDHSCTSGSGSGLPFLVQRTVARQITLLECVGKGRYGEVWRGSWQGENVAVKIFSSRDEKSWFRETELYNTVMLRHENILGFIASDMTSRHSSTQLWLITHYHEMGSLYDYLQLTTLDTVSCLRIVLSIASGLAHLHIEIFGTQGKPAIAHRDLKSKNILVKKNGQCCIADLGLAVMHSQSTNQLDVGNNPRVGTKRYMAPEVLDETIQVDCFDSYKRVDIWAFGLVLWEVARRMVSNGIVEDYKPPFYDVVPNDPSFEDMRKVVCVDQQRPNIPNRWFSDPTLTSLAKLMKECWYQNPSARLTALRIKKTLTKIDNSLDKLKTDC

[5] = target: Macrophage-stimulating protein receptor (Homo sapiens, UniProt Q04912)
Further: in the data inactive means no Kd found up to 30 µM.

Guanine nucleotide-binding protein G(i) subunit alpha-2, sequence (P04899 whole entry): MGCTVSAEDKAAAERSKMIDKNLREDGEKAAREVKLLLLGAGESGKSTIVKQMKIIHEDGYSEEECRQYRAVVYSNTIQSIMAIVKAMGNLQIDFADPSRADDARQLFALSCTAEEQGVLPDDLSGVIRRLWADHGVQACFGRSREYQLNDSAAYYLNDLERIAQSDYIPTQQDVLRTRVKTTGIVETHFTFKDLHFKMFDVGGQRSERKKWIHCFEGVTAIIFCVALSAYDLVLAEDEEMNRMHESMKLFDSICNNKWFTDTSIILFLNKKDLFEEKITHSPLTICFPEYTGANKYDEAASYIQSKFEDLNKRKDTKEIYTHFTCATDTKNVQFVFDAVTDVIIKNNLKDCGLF
Macrophage-stimulating protein receptor, sequence (Q04912 25-304 limits assumed): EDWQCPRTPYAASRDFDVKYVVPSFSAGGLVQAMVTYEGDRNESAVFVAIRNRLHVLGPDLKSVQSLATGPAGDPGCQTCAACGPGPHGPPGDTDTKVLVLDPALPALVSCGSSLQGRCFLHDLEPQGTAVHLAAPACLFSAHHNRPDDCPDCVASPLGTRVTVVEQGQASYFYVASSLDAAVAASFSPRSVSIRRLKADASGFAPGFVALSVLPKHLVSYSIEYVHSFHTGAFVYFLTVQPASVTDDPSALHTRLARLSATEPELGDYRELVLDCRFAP
Macrophage-stimulating protein receptor, sequence (Q04912 310-1400 limits assumed): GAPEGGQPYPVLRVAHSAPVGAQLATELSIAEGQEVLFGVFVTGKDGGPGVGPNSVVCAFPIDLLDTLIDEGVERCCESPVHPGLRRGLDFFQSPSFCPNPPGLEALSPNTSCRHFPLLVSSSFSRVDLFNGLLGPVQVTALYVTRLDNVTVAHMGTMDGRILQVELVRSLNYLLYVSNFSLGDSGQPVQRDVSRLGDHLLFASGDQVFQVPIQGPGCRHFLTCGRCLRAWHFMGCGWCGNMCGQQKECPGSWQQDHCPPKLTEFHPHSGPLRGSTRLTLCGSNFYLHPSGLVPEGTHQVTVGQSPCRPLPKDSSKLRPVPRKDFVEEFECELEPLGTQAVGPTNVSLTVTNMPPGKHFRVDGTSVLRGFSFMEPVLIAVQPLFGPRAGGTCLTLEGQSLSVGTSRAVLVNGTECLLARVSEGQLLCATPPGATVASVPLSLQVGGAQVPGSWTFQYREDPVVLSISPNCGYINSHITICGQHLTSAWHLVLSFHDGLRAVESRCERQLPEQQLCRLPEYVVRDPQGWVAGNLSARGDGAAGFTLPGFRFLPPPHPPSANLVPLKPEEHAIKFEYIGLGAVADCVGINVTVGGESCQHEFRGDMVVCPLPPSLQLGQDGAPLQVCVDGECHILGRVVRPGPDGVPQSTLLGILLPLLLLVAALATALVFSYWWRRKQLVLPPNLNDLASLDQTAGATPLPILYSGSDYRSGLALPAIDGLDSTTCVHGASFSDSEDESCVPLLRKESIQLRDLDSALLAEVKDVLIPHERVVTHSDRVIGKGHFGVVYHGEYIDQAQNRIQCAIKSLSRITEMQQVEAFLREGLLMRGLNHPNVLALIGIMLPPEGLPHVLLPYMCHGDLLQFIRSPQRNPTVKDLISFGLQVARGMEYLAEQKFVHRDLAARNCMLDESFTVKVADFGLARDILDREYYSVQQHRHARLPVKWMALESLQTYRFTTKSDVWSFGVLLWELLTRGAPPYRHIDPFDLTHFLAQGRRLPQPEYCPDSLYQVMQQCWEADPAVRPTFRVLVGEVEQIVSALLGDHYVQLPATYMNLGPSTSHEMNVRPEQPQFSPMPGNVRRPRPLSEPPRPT
cAMP-dependent protein kinase type II-alpha regulatory subunit, sequence (P13861 whole entry): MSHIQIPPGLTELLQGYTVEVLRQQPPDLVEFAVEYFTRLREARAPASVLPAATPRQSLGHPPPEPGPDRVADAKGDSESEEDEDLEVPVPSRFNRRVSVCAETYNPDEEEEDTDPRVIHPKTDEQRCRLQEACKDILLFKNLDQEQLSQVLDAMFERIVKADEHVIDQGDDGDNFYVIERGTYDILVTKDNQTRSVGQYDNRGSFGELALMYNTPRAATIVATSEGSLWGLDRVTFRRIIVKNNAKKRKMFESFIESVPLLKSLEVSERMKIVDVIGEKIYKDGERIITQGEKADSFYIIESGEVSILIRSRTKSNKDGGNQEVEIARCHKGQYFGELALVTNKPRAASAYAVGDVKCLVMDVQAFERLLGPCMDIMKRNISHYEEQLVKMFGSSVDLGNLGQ

Compound: Cn1cc(-c2cnc3ccc4ccc(CS(=O)(=O)NCc5ccccn5)cc4c(=O)c3c2)cn1 [MK-8033]
- Kd [1]: > 30 µM (inactive)
- Kd [2]: > 30 µM (inactive)
- Kd [3]: > 30 µM (inactive)
- Kd [4]: > 30 µM (inactive)
- Kd (Activin receptor type-1): > 30 µM (inactive)
- Kd [5]: 0.956 µM (active)

Compound: CN(C[C@@H]1COCCO1)S(=O)(=O)Nc1ccc2ccc3ncc(-c4cnn(C)c4)cc3c(=O)c2c1 [MK-2461]
- Kd [1]: > 30 µM (inactive)
- Kd [2]: > 30 µM (inactive)
- Kd [3]: > 30 µM (inactive)
- Kd [4]: > 30 µM (inactive)
- Kd (Activin receptor type-1): > 30 µM (inactive)
- Kd [5]: 0.278 µM (active)

Compound: CN1C/C=C/CCOc2cccc(c2)-c2ccnc(n2)Nc2cccc(c2)C1 [ZOTIRACICLIB]
- Kd [1]: > 30 µM (inactive)
- Kd [2]: > 30 µM (inactive)
- Kd [3]: > 30 µM (inactive)
- Kd [4]: 0.474 µM (active)
- Kd (Activin receptor type-1): > 30 µM (inactive)
- Kd [5]: > 30 µM (inactive)

Compound: Cc1cc(Nc2ncc(Cl)c(Nc3ccccc3S(=O)(=O)C(C)C)n2)c(OC(C)C)cc1C1CCNCC1 [CERITINIB]
- Kd [1]: > 30 µM (inactive)
- Kd [2]: > 30 µM (inactive)
- Kd [3]: > 30 µM (inactive)
- Kd [4]: > 30 µM (inactive)
- Kd (Activin receptor type-1): > 30 µM (inactive)
- Kd [5]: > 30 µM (inactive)

Compound: CC(C)(C)c1nc(-c2cccc(NS(=O)(=O)c3c(F)cccc3F)c2F)c(-c2ccnc(N)n2)s1 [DABRAFENIB]
- Kd [1]: > 30 µM (inactive)
- Kd [2]: > 30 µM (inactive)
- Kd [3]: > 30 µM (inactive)
- Kd [4]: 0.034 µM (active)
- Kd [5]: > 30 µM (inactive)

Compound: COc1cc(Nc2ncc3c(n2)-c2ccc(Cl)cc2C(c2c(F)cccc2OC)=NC3)ccc1C(=O)O [ALISERTIB]
- Kd [1]: > 30 µM (inactive)
- Kd [2]: > 30 µM (inactive)
- Kd [3]: 0.184 µM
- Kd (Activin receptor type-1): > 30 µM (inactive)

Compound: O=C(Nc1cc(C(F)(F)F)cc(C(F)(F)F)c1)c1cc(Cl)ccc1O [IMD-0354]
- Kd [1]: > 30 µM (inactive)
- Kd [2]: > 30 µM (inactive)
- Kd [3]: > 30 µM (inactive)
- Kd (Activin receptor type-1): > 30 µM (inactive)
- Kd [5]: > 30 µM (inactive)

Compound: N#CC[C@H](C1CCCC1)n1cc(-c2ncnc3[nH]ccc23)cn1 [RUXOLITINIB]
- Kd [1]: > 30 µM (inactive)
- Kd [2]: > 30 µM (inactive)
- Kd [3]: > 30 µM (inactive)

Compound: C#Cc1cccc(Nc2ncnc3cc(OC)c(OCCCCCCC(=O)NO)cc23)c1 [CUDC-101]
- Kd [2]: > 30 µM (inactive)
- Kd [3]: > 30 µM (inactive)
- Kd [4]: > 30 µM (inactive)
- Kd (Activin receptor type-1): > 30 µM (inactive)
- Kd [5]: > 30 µM (inactive)

Compound: Cn1ncc(Cl)c1-c1cc(C(=O)N[C@H](CN)Cc2ccc(F)c(F)c2)oc1Cl [UPROSERTIB]
- Kd [2]: > 30 µM (inactive)
- Kd [3]: > 30 µM (inactive)
- Kd (Activin receptor type-1): > 30 µM (inactive)
- Kd [5]: > 30 µM (inactive)

Compound: C[C@@H](Oc1cc(C(=O)Nc2ccc(C(=O)N3CCN(C)CC3)cc2)nnc1N)c1c(Cl)ccc(F)c1Cl
- Kd [1]: > 30 µM (inactive)
- Kd [3]: > 30 µM (inactive)
- Kd [4]: > 30 µM (inactive)
- Kd (Activin receptor type-1): > 30 µM (inactive)
- Kd [5]: > 30 µM (inactive)

Compound: O=C(Nc1nc2cccc(-c3ccc(CN4CCS(=O)(=O)CC4)cc3)n2n1)C1CC1 [FILGOTINIB]
- Kd [1]: > 30 µM (inactive)
- Kd [2]: > 30 µM (inactive)
- Kd [4]: > 30 µM (inactive)
- Kd (Activin receptor type-1): > 30 µM (inactive)
- Kd [5]: > 30 µM (inactive)

Compound: Cc1nc(Nc2n[nH]c3c2CN(C(=O)N[C@H](CN(C)C)c2ccccc2)C3(C)C)c2sccc2n1 [PF-03758309]
- Kd [1]: > 30 µM (inactive)
- Kd [2]: > 30 µM (inactive)
- Kd [3]: > 30 µM (inactive)
- Kd (Activin receptor type-1): > 30 µM (inactive)
- Kd [5]: > 30 µM (inactive)

Compound: Cc1[nH]c(/C=C2\C(=O)Nc3ccccc32)c(C)c1CCC(=O)O [ORANTINIB]
- Kd [1]: > 30 µM (inactive)
- Kd [2]: > 30 µM (inactive)
- Kd [3]: > 30 µM (inactive)
- Kd (Activin receptor type-1): > 30 µM (inactive)
- Kd [5]: > 30 µM (inactive)

Compound: COCc1c(-c2ccc(NC(=O)Nc3cc(C(F)(F)F)ccc3F)c(F)c2)c2c(N)ncnn2c1CN1CCOCC1
- Kd [1]: > 30 µM (inactive)
- Kd [2]: > 30 µM (inactive)
- Kd [4]: > 30 µM (inactive)
- Kd (Activin receptor type-1): > 30 µM (inactive)
- Kd [5]: > 30 µM (inactive)

Compound: CNC(=O)c1ccccc1Sc1ccc2c(/C=C/c3ccccn3)n[nH]c2c1 [AXITINIB]
- Kd [1]: > 30 µM (inactive)
- Kd [2]: > 30 µM (inactive)
- Kd [3]: > 30 µM (inactive)

Compound: C[C@@H](Oc1cc(-n2cnc3ccc(CN4CCN(C)CC4)cc32)sc1C(N)=O)c1ccccc1C(F)(F)F [GSK-461364]
- Kd [1]: > 30 µM (inactive)
- Kd [2]: > 30 µM (inactive)
- Kd [3]: > 30 µM (inactive)

Compound: CNC(=O)c1cc(Oc2ccc(NC(=O)Nc3cc(C(C)(C)C)nn3-c3ccc4ncccc4c3)c(F)c2)ccn1 [REBASTINIB]
- Kd [1]: > 30 µM (inactive)
- Kd [2]: > 30 µM (inactive)
- Kd [4]: > 30 µM (inactive)
- Kd (Activin receptor type-1): > 30 µM (inactive)
- Kd [5]: 0.732 µM (active)

Compound: C=CC(=O)N1CCC[C@H](n2c(=O)n(-c3ccc(Oc4ccccc4)cc3)c3c(N)ncnc32)C1
- Kd [1]: > 30 µM (inactive)
- Kd [2]: > 30 µM (inactive)
- Kd [4]: > 30 µM (inactive)
- Kd (Activin receptor type-1): > 30 µM (inactive)
- Kd [5]: > 30 µM (inactive)

Compound: NC(=O)Nc1cc(-c2cccc(F)c2)sc1C(=O)N[C@H]1CCCNC1 [AZD-7762]
- Kd [2]: > 30 µM (inactive)
- Kd [3]: > 30 µM (inactive)
- Kd [4]: 1.16 µM (active)
- Kd (Activin receptor type-1): > 30 µM (inactive)
- Kd [5]: > 30 µM (inactive)

Compound: O=C(NOCCO)c1cc(CN2OCCCC2=O)c(F)c(F)c1Nc1ccc(I)cc1F [RO-4987655]
- Kd [1]: > 30 µM (inactive)
- Kd [2]: > 30 µM (inactive)
- Kd [3]: > 30 µM (inactive)

Compound: NC(=O)c1c(OCc2c(F)cc(Br)cc2F)nsc1NC(=O)NCCCCN1CCCC1 [OSI-632]
- Kd [1]: > 30 µM (inactive)
- Kd [2]: > 30 µM (inactive)
- Kd [3]: > 30 µM (inactive)

Compound: O=C(Nc1c[nH]nc1-c1nc2cc(CN3CCOCC3)ccc2[nH]1)NC1CC1 [AT-9283]
- Kd [1]: > 30 µM (inactive)
- Kd [2]: > 30 µM (inactive)
- Kd [3]: > 30 µM (inactive)
- Kd (Activin receptor type-1): 0.078 µM (active)
- Kd [5]: > 30 µM (inactive)

Compound: CCn1c(C(=O)N(C2CC2)C2CC2)cc2c3c(ncn3C)c(Nc3cc(C)n(C)n3)nc21 [BMS-911543]
- Kd [1]: > 30 µM (inactive)
- Kd [2]: > 30 µM (inactive)
- Kd [4]: > 30 µM (inactive)
- Kd (Activin receptor type-1): > 30 µM (inactive)
- Kd [5]: > 30 µM (inactive)
